Values quoted from earlier work in US20030092754A1, “External preparation for skin diseases containing nitroimidazole” (priority 1999, published 2003).

Experiments:
[1] = test system: leukocyte migration
[2] = test system: granuloma formation; conditions: mice, oral administration
[3] = test system: Entamoeba histolytica
[4] = test system: delayed immune reaction; conditions: intraperitoneal administration
[5] = test system: Trichomonas
[6] = test system: swelling of the ears induced by dinitrofluorobenzene; conditions: sensitized mice, intraperitoneal administration
[7] = test system: anti-TBA antibody titer; conditions: rabbits, intraperitoneal administration

| Structure (SMILES) | action on leukocyte migration [1] | formation of granuloma by eggs of Schistosoma mansoni [2] | antimicrobial activity against Entamoeba histolytica [3] | delayed immune reaction to intravenous injection of ovine erythrocytes [4] | anti-Trichomonas activity [5] | swelling of the ears induced by dinitrofluorobenzene [6] | increases in anti-TBA antibody titer to TBA vaccine [7] |
| --- | --- | --- | --- | --- | --- | --- | --- |
| Cc1ncc([N+](=O)[O-])n1CCO [metronidazole, 2-(2-methyl-5-nitroimidazol-1-yl)ethanol] | inhibitory action on leukocyte migration | inhibited | strong antimicrobial activity | inhibits a delayed immune reaction | potent anti-Trichomonas activity | inhibit swelling of the ears | significantly inhibits |
| CCS(=O)(=O)CCn1c([N+](=O)[O-])cnc1C [tinidazole, 1-(2-ethylsulfonylethyl)-2-methyl-5-nitroimidazole] | clearly exhibits inhibitory action of leukocyte migration | – | – | tends to inhibit delayed immune reaction | primarily has anti-Trichomonas activity | – | – |
